In patent publication US7074789B2, “Kinase inhibitors” (Amgen Inc., priority 1999, dated 2006):

Assays:
Format in all cases: biochemical
ErbB4 = target: T1, ErbB4 (Homo sapiens, UniProt Q15303); assay: Kinase inhibition assay (33P transfer), ErbB4; conditions: read-out: ErbB4-1
T1 construct: Kinases are expressed as either kinase domains or full length constructs; made in house

Zap-70 = target: T2, Zap-70 (Homo sapiens, UniProt P43403); assay: Kinase inhibition assay (33P transfer), Zap-70; conditions: read-out: Zap-1
T2 construct: Kinases are expressed as either kinase domains or full length constructs; made in house
T2 sequence (P43403 1-619): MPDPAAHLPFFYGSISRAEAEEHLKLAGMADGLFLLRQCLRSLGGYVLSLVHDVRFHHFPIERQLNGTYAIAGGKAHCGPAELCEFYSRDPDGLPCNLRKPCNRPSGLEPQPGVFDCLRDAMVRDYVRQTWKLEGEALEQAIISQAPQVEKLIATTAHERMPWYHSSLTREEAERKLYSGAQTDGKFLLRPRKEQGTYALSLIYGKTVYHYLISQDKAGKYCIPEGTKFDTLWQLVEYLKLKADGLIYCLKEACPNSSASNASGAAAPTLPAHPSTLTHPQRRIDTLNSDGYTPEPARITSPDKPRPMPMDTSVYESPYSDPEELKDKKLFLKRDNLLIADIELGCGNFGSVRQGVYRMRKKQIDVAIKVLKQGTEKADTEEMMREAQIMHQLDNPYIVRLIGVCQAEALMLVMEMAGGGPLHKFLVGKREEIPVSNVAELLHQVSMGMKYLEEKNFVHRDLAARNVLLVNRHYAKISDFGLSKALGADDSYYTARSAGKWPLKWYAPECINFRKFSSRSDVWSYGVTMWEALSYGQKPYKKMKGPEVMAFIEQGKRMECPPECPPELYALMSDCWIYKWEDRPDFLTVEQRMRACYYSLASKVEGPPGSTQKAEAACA
In short: (§1)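 GST/His-tagged kinase (domain or full length; E. coli or baculovirus) + [33P]ATP on plates coated with poly(Glu,Tyr) 4:1 or poly(Arg,Ser) 3:1; incubate, wash 0.5% H3PO4, add scintillant, count.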

Lck = target: T3, Lck (Homo sapiens, UniProt P06239); assay: Kinase inhibition assay (33P transfer), Lck; conditions: read-out: Lck-1
T3 construct: Kinases are expressed as either kinase domains or full length constructs; made in house
In short: as §1

AKT = target: T4, AKT (Homo sapiens, UniProt Q9Y243); assay: Kinase inhibition assay (33P transfer), AKT; conditions: Table 2, kinase inhibition class; read-out: AKT3-1
T4 construct: Kinases are expressed as either kinase domains or full length constructs; made in house
In short: as §1

EGFR = target: T5, EGFR (Homo sapiens, UniProt P00533); assay: Kinase inhibition assay (33P transfer), EGFR; conditions: Table 2, kinase inhibition class; read-out: EGFR-1
T5 construct: Kinases are expressed as either kinase domains or full length constructs; made in house
In short: (§2)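 Using immobilised substrate copolymers (poly(Glu,Tyr) 4:1; poly(Arg,Ser) 3:1) and [33P]ATP, purified fusion kinases were allowed to react; plates were then rinsed in 0.5% phosphoric acid and counted in a scintillation detector. Half-maximal inhibition of label transfer defines IC50.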

Tek = target: T6, Tek (Homo sapiens, UniProt Q02763); assay: Kinase inhibition assay (33P transfer), Tek; conditions: read-out: Tek-1
T6 construct: Kinases are expressed as either kinase domains or full length constructs; made in house
In short: as §2

ErbB2 = target: T7, ErbB2 (Homo sapiens, UniProt P04626); assay: Kinase inhibition assay (33P transfer), ErbB2; conditions: read-out: ErbB2-2
T7 construct: Kinases are expressed as either kinase domains or full length constructs; made in house
In short: as §2

Kdr = target: T8, Kdr (Homo sapiens, UniProt P35968); assay: Kinase inhibition assay (33P transfer), Kdr; conditions: read-out: KDR-1
T8 construct: Kinases are expressed as either kinase domains or full length constructs; made in house
In short: as §1

IGFR-1 = target: T9, IGFR-1 (Homo sapiens, UniProt P08069); assay: Kinase inhibition assay, IGFR-1 (Table 2); conditions: Table 2, kinase inhibition class
T9 construct: Kinases are expressed as either kinase domains or full length constructs; made in house

Src = target: T10, Src (Homo sapiens, UniProt P12931); assay: Kinase inhibition assay (33P transfer), Src; conditions: Table 6, Src-1 kinase inhibition class
T10 construct: Kinases are expressed as either kinase domains or full length constructs; made in house
In short: as §2

Hck-1 = target: T11, Hck-1 (Homo sapiens, UniProt P08631); assay: Kinase inhibition assay (33P transfer), Hck; conditions: Table 6, Hck-1 kinase inhibition class
T11 construct: Kinases are expressed as either kinase domains or full length constructs; made in house

Ret-1 = target: T12, Ret-1 (Homo sapiens, UniProt P07949); assay: Kinase inhibition assay (33P transfer), Ret; conditions: Table 6, Ret-1 kinase inhibition class
T12 construct: Kinases are expressed as either kinase domains or full length constructs; made in house

Fyn = target: T13, Fyn (Homo sapiens, UniProt P06241); assay: Kinase inhibition assay (33P transfer), Fyn; conditions: read-out: Fyn-1
T13 construct: Kinases are expressed as either kinase domains or full length constructs; made in house
In short: as §2

Itk = target: T14, Itk (Homo sapiens, UniProt Q08881); assay: Kinase inhibition assay (33P transfer), Itk; conditions: read-out: Itk-1
T14 construct: Kinases are expressed as either kinase domains or full length constructs; made in house
T14 sequence (Q08881 1-620): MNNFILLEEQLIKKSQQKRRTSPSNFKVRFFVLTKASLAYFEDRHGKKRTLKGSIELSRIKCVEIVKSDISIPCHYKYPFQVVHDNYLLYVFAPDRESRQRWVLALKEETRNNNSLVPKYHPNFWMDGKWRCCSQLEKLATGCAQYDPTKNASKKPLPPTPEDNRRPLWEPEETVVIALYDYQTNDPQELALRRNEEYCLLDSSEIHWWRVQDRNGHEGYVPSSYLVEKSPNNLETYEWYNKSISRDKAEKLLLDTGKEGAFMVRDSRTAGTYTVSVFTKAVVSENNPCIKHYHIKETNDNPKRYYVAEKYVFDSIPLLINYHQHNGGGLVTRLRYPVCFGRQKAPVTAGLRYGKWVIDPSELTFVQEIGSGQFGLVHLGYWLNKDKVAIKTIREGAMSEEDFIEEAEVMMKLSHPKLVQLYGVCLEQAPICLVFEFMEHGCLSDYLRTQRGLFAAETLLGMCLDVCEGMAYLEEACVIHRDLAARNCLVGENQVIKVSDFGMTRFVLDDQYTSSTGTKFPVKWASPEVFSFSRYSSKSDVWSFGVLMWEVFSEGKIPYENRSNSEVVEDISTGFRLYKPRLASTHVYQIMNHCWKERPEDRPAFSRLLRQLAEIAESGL
In short: as §2

Flt-1 = target: T15, Flt-1 (Homo sapiens, UniProt P17948); assay: Kinase inhibition assay (33P transfer), Flt-1
T15 construct: Kinases are expressed as either kinase domains or full length constructs; made in house
In short: as §2

c-Met = target: T16, c-Met (Homo sapiens, UniProt P08581); assay: Kinase inhibition assay (33P transfer), c-Met; conditions: Table 2, kinase inhibition class; read-out: Met-1
T16 construct: Kinases are expressed as either kinase domains or full length constructs; made in house
In short: as §2

FGFR1 = target: T17, FGFR1 (Homo sapiens, UniProt P11362); assay: Kinase inhibition assay (33P transfer), FGFR1; conditions: read-out: FGFR1-1
T17 construct: Kinases are expressed as either kinase domains or full length constructs; made in house

PDGFRB = target: T18, PDGFRB (Homo sapiens, UniProt P09619); assay: Kinase inhibition assay (33P transfer), PDGFRB; conditions: read-out: PDGFRB-1
T18 construct: Kinases are expressed as either kinase domains or full length constructs; made in house

Lyn = target: T19, Lyn (Homo sapiens, UniProt P07948); assay: Kinase inhibition assay (33P transfer), Lyn; conditions: Table 6, Lyn-1 kinase inhibition class
T19 construct: Kinases are expressed as either kinase domains or full length constructs; made in house
In short: as §2

Measured: IC50

T13 sequence (P06241 whole entry, species assumed, the tested form may be a part): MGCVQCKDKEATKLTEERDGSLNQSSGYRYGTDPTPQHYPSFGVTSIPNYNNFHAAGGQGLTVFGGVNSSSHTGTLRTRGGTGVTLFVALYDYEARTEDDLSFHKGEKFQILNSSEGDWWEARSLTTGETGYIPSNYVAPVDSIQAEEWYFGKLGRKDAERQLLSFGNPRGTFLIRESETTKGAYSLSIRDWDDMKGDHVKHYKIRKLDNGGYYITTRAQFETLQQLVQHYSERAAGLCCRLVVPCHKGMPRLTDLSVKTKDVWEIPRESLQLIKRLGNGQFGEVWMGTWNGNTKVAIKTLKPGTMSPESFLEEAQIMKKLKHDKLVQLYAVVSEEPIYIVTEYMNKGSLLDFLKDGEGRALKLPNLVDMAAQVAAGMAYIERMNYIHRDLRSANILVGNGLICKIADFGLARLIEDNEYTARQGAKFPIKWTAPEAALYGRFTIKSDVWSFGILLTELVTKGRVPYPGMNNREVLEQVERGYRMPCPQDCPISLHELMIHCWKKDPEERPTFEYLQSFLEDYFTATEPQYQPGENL
T17 sequence (P11362 22-822, species assumed): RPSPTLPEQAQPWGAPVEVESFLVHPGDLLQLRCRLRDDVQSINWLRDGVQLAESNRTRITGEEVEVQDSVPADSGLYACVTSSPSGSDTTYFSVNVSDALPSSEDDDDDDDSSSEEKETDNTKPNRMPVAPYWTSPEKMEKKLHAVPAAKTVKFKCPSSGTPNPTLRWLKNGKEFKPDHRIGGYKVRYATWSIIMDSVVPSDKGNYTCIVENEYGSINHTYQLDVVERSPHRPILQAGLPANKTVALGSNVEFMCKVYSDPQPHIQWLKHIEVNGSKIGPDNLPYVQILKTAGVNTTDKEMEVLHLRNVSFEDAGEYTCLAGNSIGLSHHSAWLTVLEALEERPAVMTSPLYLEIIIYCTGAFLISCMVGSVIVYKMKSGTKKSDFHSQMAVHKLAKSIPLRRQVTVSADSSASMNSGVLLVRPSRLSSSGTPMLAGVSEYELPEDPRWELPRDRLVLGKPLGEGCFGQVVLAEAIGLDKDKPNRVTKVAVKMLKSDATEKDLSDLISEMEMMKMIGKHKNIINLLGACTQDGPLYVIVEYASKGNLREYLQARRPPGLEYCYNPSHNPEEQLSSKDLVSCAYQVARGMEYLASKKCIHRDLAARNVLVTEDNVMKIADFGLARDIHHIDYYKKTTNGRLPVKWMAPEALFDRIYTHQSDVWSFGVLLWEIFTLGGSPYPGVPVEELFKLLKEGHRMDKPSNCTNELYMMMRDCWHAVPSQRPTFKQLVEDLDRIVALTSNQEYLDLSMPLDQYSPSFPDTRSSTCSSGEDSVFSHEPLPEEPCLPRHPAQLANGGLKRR
T5 sequence (P00533 25-1210, species assumed): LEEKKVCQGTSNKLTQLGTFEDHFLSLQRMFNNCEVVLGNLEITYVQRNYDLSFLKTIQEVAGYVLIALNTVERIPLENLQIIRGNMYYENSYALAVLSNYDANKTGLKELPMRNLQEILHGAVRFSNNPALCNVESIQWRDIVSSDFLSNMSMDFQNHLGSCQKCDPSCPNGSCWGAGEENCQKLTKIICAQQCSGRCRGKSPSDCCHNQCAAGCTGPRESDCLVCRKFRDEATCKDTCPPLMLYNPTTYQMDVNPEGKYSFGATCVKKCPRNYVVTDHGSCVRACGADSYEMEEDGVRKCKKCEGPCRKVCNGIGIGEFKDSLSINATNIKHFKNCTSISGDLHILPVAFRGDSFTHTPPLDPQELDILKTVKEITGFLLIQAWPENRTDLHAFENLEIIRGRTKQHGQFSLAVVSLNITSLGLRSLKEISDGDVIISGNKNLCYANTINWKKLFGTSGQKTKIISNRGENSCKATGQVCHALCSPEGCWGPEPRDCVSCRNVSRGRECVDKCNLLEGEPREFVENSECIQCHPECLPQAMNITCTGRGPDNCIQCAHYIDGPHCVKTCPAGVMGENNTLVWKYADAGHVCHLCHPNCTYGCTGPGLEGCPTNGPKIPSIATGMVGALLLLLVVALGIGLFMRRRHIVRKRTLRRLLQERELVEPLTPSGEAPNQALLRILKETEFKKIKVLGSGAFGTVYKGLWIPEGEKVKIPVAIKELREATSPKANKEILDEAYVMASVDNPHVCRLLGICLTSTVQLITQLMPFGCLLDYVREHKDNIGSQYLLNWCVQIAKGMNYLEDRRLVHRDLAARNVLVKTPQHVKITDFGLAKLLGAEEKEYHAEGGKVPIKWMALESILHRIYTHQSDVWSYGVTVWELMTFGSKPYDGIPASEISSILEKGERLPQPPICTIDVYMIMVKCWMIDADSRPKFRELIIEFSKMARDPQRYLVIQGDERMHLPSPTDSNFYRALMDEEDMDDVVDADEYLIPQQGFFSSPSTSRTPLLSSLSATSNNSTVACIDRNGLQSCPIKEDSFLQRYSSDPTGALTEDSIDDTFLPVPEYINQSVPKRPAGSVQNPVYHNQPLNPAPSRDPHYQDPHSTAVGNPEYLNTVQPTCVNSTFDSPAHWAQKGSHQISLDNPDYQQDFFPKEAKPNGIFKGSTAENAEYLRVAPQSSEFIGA
T4 sequence (Q9Y243 whole entry, the tested form may be a part): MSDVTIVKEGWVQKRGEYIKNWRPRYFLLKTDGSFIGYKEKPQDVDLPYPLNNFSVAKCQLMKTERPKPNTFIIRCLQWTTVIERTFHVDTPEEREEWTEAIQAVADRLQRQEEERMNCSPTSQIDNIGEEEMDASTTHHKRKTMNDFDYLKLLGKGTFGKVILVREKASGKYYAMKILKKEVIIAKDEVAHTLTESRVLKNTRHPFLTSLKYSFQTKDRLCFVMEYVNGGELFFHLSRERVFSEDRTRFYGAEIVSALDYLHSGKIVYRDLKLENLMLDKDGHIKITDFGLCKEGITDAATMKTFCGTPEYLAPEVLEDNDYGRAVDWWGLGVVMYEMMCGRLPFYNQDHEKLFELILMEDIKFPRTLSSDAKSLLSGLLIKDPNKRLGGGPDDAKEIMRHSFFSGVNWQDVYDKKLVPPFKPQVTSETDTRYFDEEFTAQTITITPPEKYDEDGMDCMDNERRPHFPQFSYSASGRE
T16 sequence (P08581 25-1390): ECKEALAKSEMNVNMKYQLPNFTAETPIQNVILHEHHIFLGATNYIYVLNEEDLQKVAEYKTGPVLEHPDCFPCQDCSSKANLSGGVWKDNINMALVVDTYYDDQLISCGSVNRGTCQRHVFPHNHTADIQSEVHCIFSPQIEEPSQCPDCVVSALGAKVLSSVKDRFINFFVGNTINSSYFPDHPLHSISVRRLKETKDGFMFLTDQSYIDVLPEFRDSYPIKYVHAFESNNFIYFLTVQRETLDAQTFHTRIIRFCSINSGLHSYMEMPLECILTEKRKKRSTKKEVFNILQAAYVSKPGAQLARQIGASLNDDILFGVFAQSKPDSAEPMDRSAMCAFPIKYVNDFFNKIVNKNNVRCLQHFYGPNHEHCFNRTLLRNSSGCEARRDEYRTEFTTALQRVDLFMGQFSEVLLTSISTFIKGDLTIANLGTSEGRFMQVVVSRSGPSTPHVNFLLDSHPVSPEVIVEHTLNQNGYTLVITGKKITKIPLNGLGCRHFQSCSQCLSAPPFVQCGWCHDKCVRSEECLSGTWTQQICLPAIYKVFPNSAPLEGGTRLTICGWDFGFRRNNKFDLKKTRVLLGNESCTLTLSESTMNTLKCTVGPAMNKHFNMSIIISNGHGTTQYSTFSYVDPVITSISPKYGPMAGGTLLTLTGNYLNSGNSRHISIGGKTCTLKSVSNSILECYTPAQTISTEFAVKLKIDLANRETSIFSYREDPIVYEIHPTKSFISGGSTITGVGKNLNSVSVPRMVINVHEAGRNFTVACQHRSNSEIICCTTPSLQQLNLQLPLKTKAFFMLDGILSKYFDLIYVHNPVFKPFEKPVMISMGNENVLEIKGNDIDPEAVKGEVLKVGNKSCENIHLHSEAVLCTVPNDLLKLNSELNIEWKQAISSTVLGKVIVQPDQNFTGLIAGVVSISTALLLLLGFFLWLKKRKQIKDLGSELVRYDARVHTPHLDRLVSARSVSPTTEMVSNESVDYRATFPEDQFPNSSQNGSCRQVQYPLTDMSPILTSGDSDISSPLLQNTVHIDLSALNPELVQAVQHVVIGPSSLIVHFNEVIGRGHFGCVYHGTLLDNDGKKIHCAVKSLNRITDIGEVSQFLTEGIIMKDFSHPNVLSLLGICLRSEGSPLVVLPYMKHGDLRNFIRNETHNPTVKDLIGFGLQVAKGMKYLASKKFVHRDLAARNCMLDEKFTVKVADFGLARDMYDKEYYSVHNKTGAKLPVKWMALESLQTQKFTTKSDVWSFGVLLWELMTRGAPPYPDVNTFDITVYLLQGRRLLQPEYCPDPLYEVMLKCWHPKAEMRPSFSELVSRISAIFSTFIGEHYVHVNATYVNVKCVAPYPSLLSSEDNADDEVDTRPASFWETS
T10 sequence (P12931 whole entry, species assumed, the tested form may be a part): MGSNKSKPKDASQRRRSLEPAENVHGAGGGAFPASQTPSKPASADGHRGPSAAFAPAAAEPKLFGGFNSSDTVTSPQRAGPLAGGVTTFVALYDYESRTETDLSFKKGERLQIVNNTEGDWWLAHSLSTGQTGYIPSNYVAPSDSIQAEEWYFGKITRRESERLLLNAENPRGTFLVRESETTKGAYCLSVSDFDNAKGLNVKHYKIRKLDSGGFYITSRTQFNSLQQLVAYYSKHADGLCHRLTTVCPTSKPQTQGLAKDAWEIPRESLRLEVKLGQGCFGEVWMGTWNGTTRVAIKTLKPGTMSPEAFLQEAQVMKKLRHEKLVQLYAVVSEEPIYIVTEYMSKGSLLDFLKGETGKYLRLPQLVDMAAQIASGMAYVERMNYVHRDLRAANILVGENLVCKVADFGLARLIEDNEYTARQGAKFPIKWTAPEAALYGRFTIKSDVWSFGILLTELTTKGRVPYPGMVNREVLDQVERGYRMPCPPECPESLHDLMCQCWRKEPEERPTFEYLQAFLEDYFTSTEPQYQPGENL

COc1cc(Nc2ncnc(-n3c(N[C@@H](C)c4ccccc4)nc4ccccc43)n2)cc(OC)c1OC [Compound 1033]
4.82 to 7.03 µM: EGFR
7.03 to 9.04 µM: ErbB2
0.804 to 4.82 µM: ErbB4 | Src
> 9.04 µM: Zap-70 | AKT | Tek | IGFR-1 | Hck-1 | Itk | c-Met
< 0.804 µM: Lck | Kdr | Ret-1 | Fyn | Flt-1 | FGFR1 | PDGFRB | Lyn

COc1cc(Nc2ncnc(-n3c(N[C@@H](CO)c4ccccc4)nc4ccccc43)n2)cc(OC)c1OC [Compound 1036]
0.779 to 4.67 µM: EGFR | ErbB2 | Src | Fyn
> 8.76 µM: Zap-70 | AKT | Hck-1 | Itk | c-Met
4.67 to 6.82 µM: ErbB4 | Tek
6.82 to 8.76 µM: IGFR-1
< 0.779 µM: Lck | Kdr | Ret-1 | Flt-1 | FGFR1 | PDGFRB | Lyn

COc1ccc(CNc2nc3ccccc3n2-c2ncnc(Nc3cc(OC)c(OC)c(OC)c3)n2)cc1 [Compound 1037]
< 0.779 µM: Kdr
4.67 to 6.82 µM: Flt-1
0.779 to 4.67 µM: Ret-1 | FGFR1
> 8.76 µM: ErbB4 | Zap-70 | Lck | AKT | EGFR | Tek | ErbB2 | IGFR-1 | Src | Hck-1 | Fyn | Itk | c-Met | PDGFRB | Lyn

COc1cc(Nc2ncnc(-n3c(=O)[nH]c4ccccc43)n2)cc(OC)c1OCCN1CCOCC1 [Compound 1040]
< 0.81 µM: Kdr | PDGFRB
> 9.12 µM: Zap-70 | AKT | Tek | Hck-1 | c-Met | Lyn
0.81 to 4.86 µM: Lck | Src | Fyn | Itk | Flt-1 | FGFR1
4.86 to 7.09 µM: ErbB4 | EGFR | ErbB2 | Ret-1
7.09 to 9.12 µM: IGFR-1

COc1cc(Nc2ncnc(Nc3cccc4ccccc34)n2)cc(OC)c1OCCN1CCOCC1 [Compound 1041]
0.796 to 4.78 µM: ErbB4 | Tek | IGFR-1 | Hck-1 | Ret-1 | Fyn | Itk | FGFR1
< 0.796 µM: Lck | EGFR | ErbB2 | Kdr | Src | PDGFRB | Lyn
4.78 to 6.96 µM: Flt-1
> 8.95 µM: Zap-70 | AKT | c-Met
